Measurements taken from ChEMBL document CHEMBL1201862, “PubChem BioAssay data set” (2004).
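Growth conditions: 96-well plates. Treatment: test compound, 48 hours, 5 concentrations. Analysis: linear interpolation between bracketing concentrations; unreached endpoints set to highest concentration. Abbreviation: GI50, concentration required for 50% inhibition of growth.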 Activity calls are given as the source filed them. No stated cut-off is given here; in the data, active = GI50 up to about 1.1 µM and inactive = higher.

Assays:
Experiment in all cases: NCI-60 cell line screen, 48 h
A498 = system: A498
CAKI-1 = system: CAKI-1
HT-29 = system: HT-29
IGROV-1 = system: IGROV-1
KM12 = system: KM12
M14 = system: M14
MOLT-4 = system: MOLT-4
Malme-3M = system: Malme-3M
NCI-H460 = system: NCI-H460
OVCAR-5 = system: OVCAR-5
RXF 393 = system: RXF 393
SR = system: SR
SW-620 = system: SW-620
U-251 = system: U-251
UO-31 = system: UO-31
LOX IMVI = system: LOX IMVI
OVCAR-8 = system: OVCAR-8
SF-268 = system: SF-268
SNB-75 = system: SNB-75

| SMILES | GI50 (A498) | GI50 (CAKI-1) | GI50 (HT-29) | GI50 (IGROV-1) | GI50 (KM12) | GI50 (M14) | GI50 (MOLT-4) | GI50 (Malme-3M) | GI50 (NCI-H460) | GI50 (OVCAR-5) | GI50 (RXF 393) | GI50 (SR) | GI50 (SW-620) | GI50 (U-251) | GI50 (UO-31) | GI50 (LOX IMVI) | GI50 (OVCAR-8) | GI50 (SF-268) | GI50 (SNB-75) |
| --- | --- | --- | --- | --- | --- | --- | --- | --- | --- | --- | --- | --- | --- | --- | --- | --- | --- | --- | --- |
| C[C@@H]1OC(=O)C[C@H]2CC(=O)N(CCC3CN(S(=O)(=O)C(F)(F)F)c4ccccc43)C[C@@H]21 (some centres undefined) | > 100 µM (inactive) | > 100 µM (inactive) | > 100 µM (inactive) | 69.7 µM (inactive) | > 100 µM (inactive) | > 100 µM (inactive) | > 100 µM (inactive) | 82.4 µM (inactive) | > 100 µM (inactive) | > 100 µM (inactive) | > 100 µM (inactive) | > 100 µM (inactive) | > 100 µM (inactive) | > 100 µM (inactive) | > 100 µM (inactive) | – | – | – | – |
| CCOP1(=O)CC(C)=C(Cl)C(OC)C1 (centres undefined) | > 100 µM (inactive) | > 100 µM (inactive) | > 100 µM (inactive) | > 100 µM (inactive) | > 100 µM (inactive) | > 100 µM (inactive) | > 100 µM (inactive) | > 100 µM (inactive) | > 100 µM (inactive) | > 100 µM (inactive) | > 100 µM (inactive) | > 100 µM (inactive) | > 100 µM (inactive) | > 100 µM (inactive) | – | 61.7 µM (inactive) | > 100 µM (inactive) | > 100 µM (inactive) | > 100 µM (inactive) |
| c1ccc2c(c1)NC(C1OC3CCCN3C1C1Nc3ccccc3S1)S2 (centres undefined) | > 100 µM (inactive) | > 100 µM (inactive) | 44.4 µM (inactive) | > 100 µM (inactive) | 46.5 µM (inactive) | > 100 µM (inactive) | 29.9 µM (inactive) | > 100 µM (inactive) | 41.2 µM (inactive) | > 100 µM (inactive) | 21.2 µM (inactive) | 22.3 µM (inactive) | > 100 µM (inactive) | 80.2 µM (inactive) | 55.1 µM (inactive) | – | 52.1 µM (inactive) | > 100 µM (inactive) | 69.7 µM (inactive) |
| CC(C(=O)OCc1ccccc1)N(Cc1ccccc1)Cc1ccccc1 (centres undefined) | > 100 µM (inactive) | > 100 µM (inactive) | 46.8 µM (inactive) | > 100 µM (inactive) | 58.7 µM (inactive) | > 100 µM (inactive) | 33 µM (inactive) | 51.2 µM (inactive) | > 100 µM (inactive) | > 100 µM (inactive) | 23.1 µM (inactive) | 31 µM (inactive) | > 100 µM (inactive) | 98.4 µM (inactive) | 75.3 µM (inactive) | – | > 100 µM (inactive) | > 100 µM (inactive) | 42.7 µM (inactive) |
| CNS(=O)(=O)NN(C)S(=O)(=O)c1ccc(C)cc1 | > 100 µM (inactive) | > 100 µM (inactive) | > 100 µM (inactive) | > 100 µM (inactive) | > 100 µM (inactive) | > 100 µM (inactive) | > 100 µM (inactive) | > 100 µM (inactive) | > 100 µM (inactive) | > 100 µM (inactive) | > 100 µM (inactive) | > 100 µM (inactive) | > 100 µM (inactive) | – | > 100 µM (inactive) | – | > 100 µM (inactive) | > 100 µM (inactive) | – |
| Cc1coc2c1C(=O)C(=O)c1ccccc1-2 | 1.83 µM (inactive) | 1.86 µM (inactive) | 1.8 µM (inactive) | 1.83 µM (inactive) | 1.81 µM (inactive) | 1.35 µM (inactive) | 2.21 µM (inactive) | 1.58 µM (inactive) | 1.77 µM (inactive) | 2.11 µM (inactive) | 1.74 µM (inactive) | 1.38 µM (inactive) | 1.41 µM (inactive) | 1.61 µM (inactive) | 3.1 µM (inactive) | 0.305 µM (active) | 0.322 µM (active) | – | 1.72 µM (inactive) |
| CC1=C(Cl)C=CP(=O)(OC(C)C)C1 (centres undefined) | > 100 µM (inactive) | – | > 100 µM (inactive) | > 100 µM (inactive) | > 100 µM (inactive) | 61.7 µM (inactive) | 40.7 µM (inactive) | > 100 µM (inactive) | > 100 µM (inactive) | > 100 µM (inactive) | > 100 µM (inactive) | 46.2 µM (inactive) | 67.8 µM (inactive) | > 100 µM (inactive) | > 100 µM (inactive) | – | 36.9 µM (inactive) | > 100 µM (inactive) | 0.39 µM (active) |
| OC(Cn1cncn1)(Cn1cncn1)c1ccc(Cl)cc1Cl | > 100 µM (inactive) | > 100 µM (inactive) | > 100 µM (inactive) | > 100 µM (inactive) | > 100 µM (inactive) | > 100 µM (inactive) | > 100 µM (inactive) | > 100 µM (inactive) | > 100 µM (inactive) | > 100 µM (inactive) | > 100 µM (inactive) | > 100 µM (inactive) | > 100 µM (inactive) | > 100 µM (inactive) | > 100 µM (inactive) | > 100 µM (inactive) | > 100 µM (inactive) | > 100 µM (inactive) | > 100 µM (inactive) |
| CC(=O)N(CCN)CCN | > 10 µM (inactive) | > 10 µM (inactive) | – | – | > 10 µM (inactive) | > 10 µM (inactive) | > 10 µM (inactive) | – | > 10 µM (inactive) | – | > 10 µM (inactive) | > 10 µM (inactive) | > 10 µM (inactive) | > 10 µM (inactive) | > 10 µM (inactive) | > 10 µM (inactive) | > 10 µM (inactive) | > 100 µM (inactive) | > 100 µM (inactive) |
| [O-][n+]1c(CN2CCCCC2)nc2cccc3c2c1-c1ccccc1-3 | 18.2 µM (inactive) | 25.4 µM (inactive) | 17.3 µM (inactive) | 23.5 µM (inactive) | 26.4 µM (inactive) | 15.9 µM (inactive) | > 100 µM (inactive) | 14.3 µM (inactive) | 18 µM (inactive) | 21.3 µM (inactive) | 13.7 µM (inactive) | 43.5 µM (inactive) | 28.8 µM (inactive) | 29.4 µM (inactive) | 11.9 µM (inactive) | 19.4 µM (inactive) | 22.8 µM (inactive) | – | 24.6 µM (inactive) |
| CC(=O)NNc1nc(C)c(C(=O)NNC(=O)C(=O)Nc2c(C)cccc2C(C)(C)C)s1 | > 100 µM (inactive) | 49.5 µM (inactive) | 64 µM (inactive) | 93.3 µM (inactive) | > 100 µM (inactive) | > 100 µM (inactive) | 41.1 µM (inactive) | – | 52.2 µM (inactive) | > 100 µM (inactive) | > 100 µM (inactive) | 48.2 µM (inactive) | > 100 µM (inactive) | 58.7 µM (inactive) | 47.8 µM (inactive) | 57.8 µM (inactive) | > 100 µM (inactive) | > 100 µM (inactive) | > 100 µM (inactive) |
| COc1ccc(C2C(Cl)C(=O)N2NC(=O)Cc2ccccc2)cc1OC (centres undefined) | – | > 100 µM (inactive) | > 100 µM (inactive) | > 100 µM (inactive) | > 100 µM (inactive) | > 100 µM (inactive) | > 100 µM (inactive) | > 100 µM (inactive) | > 100 µM (inactive) | > 100 µM (inactive) | > 100 µM (inactive) | > 100 µM (inactive) | > 100 µM (inactive) | > 100 µM (inactive) | > 100 µM (inactive) | > 100 µM (inactive) | > 100 µM (inactive) | > 100 µM (inactive) | > 100 µM (inactive) |
| O=c1c2cccnc2ncn1CCCN1CCCCC1 | – | > 100 µM (inactive) | > 100 µM (inactive) | > 100 µM (inactive) | > 100 µM (inactive) | > 100 µM (inactive) | > 100 µM (inactive) | > 100 µM (inactive) | > 100 µM (inactive) | > 100 µM (inactive) | > 100 µM (inactive) | > 100 µM (inactive) | > 100 µM (inactive) | > 100 µM (inactive) | > 100 µM (inactive) | > 100 µM (inactive) | > 100 µM (inactive) | > 100 µM (inactive) | > 100 µM (inactive) |
| COc1ccc(-c2onc(-c3c(C)cc(C)cc3C)c2C2=NCCN2)cc1 | – | 21.1 µM (inactive) | 25.5 µM (inactive) | > 100 µM (inactive) | 44.5 µM (inactive) | 19.5 µM (inactive) | 39.8 µM (inactive) | 33.3 µM (inactive) | 28.8 µM (inactive) | > 100 µM (inactive) | 39.2 µM (inactive) | 32.2 µM (inactive) | 47.2 µM (inactive) | 18.9 µM (inactive) | 17.1 µM (inactive) | 30.1 µM (inactive) | 34.8 µM (inactive) | 36.7 µM (inactive) | 84.9 µM (inactive) |
| COCN1C(=O)[C@@H]2CCCN2C(=O)c2ccc(N)cc21 | > 100 µM (inactive) | > 100 µM (inactive) | > 100 µM (inactive) | > 100 µM (inactive) | > 100 µM (inactive) | > 100 µM (inactive) | > 100 µM (inactive) | – | > 100 µM (inactive) | > 100 µM (inactive) | > 100 µM (inactive) | > 100 µM (inactive) | > 100 µM (inactive) | > 100 µM (inactive) | > 100 µM (inactive) | > 100 µM (inactive) | > 100 µM (inactive) | > 100 µM (inactive) | > 100 µM (inactive) |
| CNS(=O)(=O)NN(C)S(=O)(=O)c1ccc(Cl)cc1 | > 100 µM (inactive) | > 100 µM (inactive) | > 100 µM (inactive) | > 100 µM (inactive) | > 100 µM (inactive) | > 100 µM (inactive) | > 100 µM (inactive) | > 100 µM (inactive) | – | – | > 100 µM (inactive) | > 100 µM (inactive) | > 100 µM (inactive) | 83 µM (inactive) | > 100 µM (inactive) | > 100 µM (inactive) | > 100 µM (inactive) | > 100 µM (inactive) | > 100 µM (inactive) |
